The nature of data set [1]: Sweetness grading of sweetener solutions on a scale from 0 to 15 over 7 days. The conditions noted are these: for Sweetness score Day 1 / Sweetness score Day 4 / Sweetness score Day 5 / Sweetness score Day 6 / Sweetness score Day 7: scale of 0-15. As to the method: Formulations comprising brazzein and rebaudiosides were developed and their relative sweetness was assessed. Sweetness was graded on a scale from 0 (no sweetness) to 15 (maximal sweetness) and assessed for the different formulations over a period of 7 days.

The conditions of data set [2]: cited from earlier work.
Data set [3] is described as follows: Sensory grading (0 to 9) of flavor and sweetness of chocolate formulations with versus without brazzein. To be noted: chocolate with Reb D, Reb E, Reb I, Reb M, with vs without brazzein; FIG. 2B. As to the method: Formulations comprising brazzein and chocolate were developed, and their relative flavor and sweetness were assessed. Sweetness and flavor were graded across different factors on a scale from 0 (minimum) to 9 (maximal) and assessed for the different formulations. Different factors tested include sweet taste, bitter taste, chocolate flavor, dairy flavor, sweet aromatics, and green/vegetative. The formulations tested comprise brazzein, Reb D, Reb E, Reb I, Reb M and chocolate compared to a control (chocolate comprising Reb D, Reb E, Reb I, and Reb M).
The sweetness is enhanced by having the early onset and slow fade more like sugar than chocolate that is only sweetened with Reb D, Reb E, Reb I, and Reb M. Therefore, including brazzein in food compositions, such as chocolate, enhance the flavor and sweetness of the composition.

For data set [4] the following is noted: cited from earlier work. The source holds these as a separate data set.

Non-standard residues stand in square brackets, D forms with d. No end group written: not given here. pGlu = O=C1CC[C@@H](C(=O)O)N1

Consider `C=C1C[C@@]23CC[C@H]4[C@@](C)(CCC[C@@]4(C)C(=O)O[C@@H]4O[C@H](CO)[C@@H](O)[C@H](O[C@@H]5O[C@H](CO)[C@@H](O)[C@H](O)[C@H]5O)[C@H]4O[C@@H]4O[C@H](CO)[C@@H](O)[C@H](O)[C@H]4O)[C@@H]2CC[C@]1(O[C@@H]1O[C@H](CO)[C@@H](O)[C@H](O[C@@H]2O[C@H](CO)[C@@H](O)[C@H](O)[C@H]2O)[C@H]1O[C@@H]1O[C@H](CO)[C@@H](O)[C@H](O)[C@H]1O)C3` [Reb M at SE of 5% sucrose, Rebaudioside M], for which, in data set [1], the “Sweetness score Day 1” value came out at 5, the “Sweetness score Day 4” value is on record as 5, the “Sweetness score Day 5” value stood at 5 and the “Sweetness score Day 6” value came to 5. For the same compound, in data set [1], the “Sweetness score Day 7” value is 5.
Consider `OC[C@H]1O[C@@](CO)(O[C@H]2O[C@H](CO)[C@@H](O)[C@H](O)[C@H]2O)[C@@H](O)[C@@H]1O` [Sucrose (5%), Sucrose], for which, in data set [1], the “Sweetness score Day 1” value is on record as 5, the “Sweetness score Day 4” value was 5, the “Sweetness score Day 5” value amounted to 5 and the “Sweetness score Day 6” value is 5. In addition, the “Sweetness score Day 7” value in data set [1] is listed as 5.
Regarding “PyrE-bra: major form brazzein, pyroglutamic acid at N-terminus, 54 amino acid residues ([pGlu]DKCKKVYENYPVSKCQLANQCNYDCKLDKHARSGECFYDEKRNLQCICDYCEY; cysteine pairing not given here; UniProt P56552 1-54, looked up)”, in data set [2] (vs 10% sucrose solution), the “Times sweeter than 10% sucrose solution” value is listed as 500 times.
In the case of “brazzein: natural peptide sweetener first isolated from the fruit of Pentadiplandra brazzeana Baillon (SEQ ID NO: 12) (QDKCKKVYENYPVSKCQLANQCNYDCKLDKHARSGECFYDEKRNLQCICDYCEY; Pentadiplandra brazzeana Baillon)”, in data set [3], the Astringency result is reported as “decreased” and the “Bitter taste at 120 seconds” value is reported as “decreased”. Further, the “Sweet taste after incubation at 80° C. for 4.5 hours” value in data set [4] (80° C., 4.5 hours, pH range of 2.5-8.0) is “sweet taste remains”. Besides, in data set [4] (98° C., 2 hours), the “Sweet taste after incubation at 98° C. for 2 hours” value is given as “sweet taste remains”. In data set [1] (25 ppm brazzein added to a 5% sucrose solution), the “Effect on perceived sweetness profile of the solution” value was “slightly enhanced”. Also, the “Sweetness over the 7-day period” value in data set [1] (25 ppm brazzein in 5% sucrose solution) is “remained stable”. The “Effect on sweetness of a Reb M solution” value in data set [1] (brazzein added to Reb M solution with SE of 5% sucrose, compared to sucrose plus brazzein) is recorded as “synergistically enhanced”. Further, in data set [2] (weight basis), the “Times sweeter than sucrose on a weight basis” value is reported as 500-2000 times.
